The source made the active and inactive calls.
Key:
[1] = molecular target: T1, ORF 73 (Human herpesvirus 8, UniProt O40947); experiment: KSHV LANA DNA-binding disruption – biochemical, fluorescence polarization, cherry-picked samples, dose response (AID 504725); set-up: species or system Human gammaherpesvirus 8;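 further: fluorescence polarization of a labeled DNA duplex reporting LANA DNA binding; potency is for inhibitors that block LANA binding to the DNA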
T1 sequence (O40947 whole entry): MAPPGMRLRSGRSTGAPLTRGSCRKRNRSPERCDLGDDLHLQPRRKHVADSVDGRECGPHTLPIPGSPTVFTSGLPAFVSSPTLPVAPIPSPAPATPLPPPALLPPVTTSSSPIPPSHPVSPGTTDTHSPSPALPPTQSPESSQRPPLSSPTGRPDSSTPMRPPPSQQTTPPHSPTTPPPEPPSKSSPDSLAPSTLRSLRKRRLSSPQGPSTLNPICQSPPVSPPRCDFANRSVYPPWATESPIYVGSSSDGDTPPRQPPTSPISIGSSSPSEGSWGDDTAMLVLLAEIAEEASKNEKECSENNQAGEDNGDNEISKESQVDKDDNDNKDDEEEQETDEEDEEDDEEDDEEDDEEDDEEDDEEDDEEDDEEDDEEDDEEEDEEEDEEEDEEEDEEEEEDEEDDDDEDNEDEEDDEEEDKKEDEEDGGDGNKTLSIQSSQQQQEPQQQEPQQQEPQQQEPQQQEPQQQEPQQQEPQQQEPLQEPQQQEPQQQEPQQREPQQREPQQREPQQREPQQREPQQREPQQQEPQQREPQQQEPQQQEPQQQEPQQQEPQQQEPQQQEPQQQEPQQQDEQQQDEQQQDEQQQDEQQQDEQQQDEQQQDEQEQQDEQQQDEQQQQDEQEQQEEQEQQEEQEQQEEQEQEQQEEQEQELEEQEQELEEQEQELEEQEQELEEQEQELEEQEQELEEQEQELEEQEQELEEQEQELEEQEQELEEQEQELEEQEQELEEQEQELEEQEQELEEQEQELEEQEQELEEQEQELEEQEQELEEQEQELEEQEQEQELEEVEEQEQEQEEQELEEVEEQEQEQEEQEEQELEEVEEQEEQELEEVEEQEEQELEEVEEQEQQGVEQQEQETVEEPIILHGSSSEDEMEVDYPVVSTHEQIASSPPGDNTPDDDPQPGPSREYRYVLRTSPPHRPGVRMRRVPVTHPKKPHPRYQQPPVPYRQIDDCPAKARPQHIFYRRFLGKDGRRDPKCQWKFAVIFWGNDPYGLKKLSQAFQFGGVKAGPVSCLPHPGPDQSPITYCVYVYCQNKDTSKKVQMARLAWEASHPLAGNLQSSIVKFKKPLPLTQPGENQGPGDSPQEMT

[2] = molecular target: T2, Protein skinhead-1 (Caenorhabditis elegans, UniProt P34707); type: functional
T2 sequence (P34707 whole entry): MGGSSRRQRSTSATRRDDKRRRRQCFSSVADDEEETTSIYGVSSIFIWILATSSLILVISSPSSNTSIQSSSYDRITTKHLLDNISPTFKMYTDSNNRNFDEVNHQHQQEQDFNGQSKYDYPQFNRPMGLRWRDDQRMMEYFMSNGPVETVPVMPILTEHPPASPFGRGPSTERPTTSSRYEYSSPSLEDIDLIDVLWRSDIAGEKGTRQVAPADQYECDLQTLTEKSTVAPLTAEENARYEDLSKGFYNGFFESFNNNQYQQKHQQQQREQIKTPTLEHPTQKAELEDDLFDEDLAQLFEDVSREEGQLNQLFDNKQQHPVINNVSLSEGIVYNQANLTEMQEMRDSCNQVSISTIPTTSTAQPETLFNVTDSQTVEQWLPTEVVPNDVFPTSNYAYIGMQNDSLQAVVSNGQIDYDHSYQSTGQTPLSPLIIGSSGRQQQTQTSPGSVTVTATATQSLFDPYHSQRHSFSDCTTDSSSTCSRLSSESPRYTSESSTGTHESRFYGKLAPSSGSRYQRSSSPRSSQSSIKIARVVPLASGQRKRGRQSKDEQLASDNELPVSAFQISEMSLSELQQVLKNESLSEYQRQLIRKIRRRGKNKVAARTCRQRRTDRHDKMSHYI

[3] = HEK-293T viability loss after treatment – luminescence, T-cell screen hits, cytotoxicity control for TCR NF-kB inhibitor project, dose response (AID 489026); type: functional, cell-based;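 further: cells exposed to compound about 14 hours before the viability readout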
[4] = molecular target: T3, Endoribonuclease toxin MazF (Escherichia coli K-12, UniProt P0AE70); experiment: activation of MazEF endoribonuclease cleavage – biochemical, fluorescence, single-stranded RNA substrate, uHTS hits, dose response (AID 588481); type: functional
T3 sequence (P0AE70 whole entry): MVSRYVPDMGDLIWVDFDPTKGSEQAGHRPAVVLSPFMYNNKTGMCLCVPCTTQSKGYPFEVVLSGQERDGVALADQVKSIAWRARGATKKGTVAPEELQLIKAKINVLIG

[5] = molecular target: T3, Endoribonuclease toxin MazF; experiment: substrate-only fluorescence increase artefacts – biochemical, single-stranded RNase substrate, counter-screen for MazEF activator project, dose response (AID 588502); type: functional
[6] = cells; type: functional
[7] = THP-1 cell cytotoxicity, dose response, cytotoxicity control for non-replicating M. tuberculosis project (AID 489025); type: functional
[8] = Vero E6 cell cytotoxicity, dose response, cytotoxicity control for non-replicating M. tuberculosis project, secondary assay (AID 492998); type: functional, VeroE6; conditions: Vero C1008
[9] = molecular target: T4, E3 ubiquitin-protein ligase XIAP (Homo sapiens, UniProt P98170); experiment: small molecules displacing peptide from XIAP – biochemical, IAP family, fluorescence polarization (AID 1018); type: functional
T4 sequence (P98170 whole entry): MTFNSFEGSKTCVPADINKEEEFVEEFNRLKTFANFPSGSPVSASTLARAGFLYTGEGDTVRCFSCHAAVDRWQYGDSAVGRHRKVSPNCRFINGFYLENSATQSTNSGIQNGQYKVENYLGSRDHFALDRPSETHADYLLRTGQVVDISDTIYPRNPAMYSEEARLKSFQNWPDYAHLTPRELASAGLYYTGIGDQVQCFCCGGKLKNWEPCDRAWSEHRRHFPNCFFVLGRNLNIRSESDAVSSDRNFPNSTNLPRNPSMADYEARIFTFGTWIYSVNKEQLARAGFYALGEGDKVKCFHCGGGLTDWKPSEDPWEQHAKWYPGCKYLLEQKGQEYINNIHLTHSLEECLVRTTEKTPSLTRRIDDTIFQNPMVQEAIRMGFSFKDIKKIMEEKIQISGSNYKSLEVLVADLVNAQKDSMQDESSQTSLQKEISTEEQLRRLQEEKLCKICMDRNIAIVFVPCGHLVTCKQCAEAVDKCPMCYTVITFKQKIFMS

[10] = molecular target: T4, E3 ubiquitin-protein ligase XIAP; experiment: Counter Screen using XIAP-Bir3 for Chemical Antagonists of Bir1/2 domains of IAP-family anti-apoptotic proteins. [Related pubchem assays (depositor defined):AID1018, AID1449, AID1514, AID1638, AID1749, AID1750, AID488957, AID488963]
[11] = molecular target: T5, Voltage-gated N-type calcium channel alpha-1B subunit/Amyloid beta A4 precursor protein-binding family A member 1 (Homo sapiens, UniProt Q00975+Q02410); type: protein assay
T5 sequence (Q00975 whole entry): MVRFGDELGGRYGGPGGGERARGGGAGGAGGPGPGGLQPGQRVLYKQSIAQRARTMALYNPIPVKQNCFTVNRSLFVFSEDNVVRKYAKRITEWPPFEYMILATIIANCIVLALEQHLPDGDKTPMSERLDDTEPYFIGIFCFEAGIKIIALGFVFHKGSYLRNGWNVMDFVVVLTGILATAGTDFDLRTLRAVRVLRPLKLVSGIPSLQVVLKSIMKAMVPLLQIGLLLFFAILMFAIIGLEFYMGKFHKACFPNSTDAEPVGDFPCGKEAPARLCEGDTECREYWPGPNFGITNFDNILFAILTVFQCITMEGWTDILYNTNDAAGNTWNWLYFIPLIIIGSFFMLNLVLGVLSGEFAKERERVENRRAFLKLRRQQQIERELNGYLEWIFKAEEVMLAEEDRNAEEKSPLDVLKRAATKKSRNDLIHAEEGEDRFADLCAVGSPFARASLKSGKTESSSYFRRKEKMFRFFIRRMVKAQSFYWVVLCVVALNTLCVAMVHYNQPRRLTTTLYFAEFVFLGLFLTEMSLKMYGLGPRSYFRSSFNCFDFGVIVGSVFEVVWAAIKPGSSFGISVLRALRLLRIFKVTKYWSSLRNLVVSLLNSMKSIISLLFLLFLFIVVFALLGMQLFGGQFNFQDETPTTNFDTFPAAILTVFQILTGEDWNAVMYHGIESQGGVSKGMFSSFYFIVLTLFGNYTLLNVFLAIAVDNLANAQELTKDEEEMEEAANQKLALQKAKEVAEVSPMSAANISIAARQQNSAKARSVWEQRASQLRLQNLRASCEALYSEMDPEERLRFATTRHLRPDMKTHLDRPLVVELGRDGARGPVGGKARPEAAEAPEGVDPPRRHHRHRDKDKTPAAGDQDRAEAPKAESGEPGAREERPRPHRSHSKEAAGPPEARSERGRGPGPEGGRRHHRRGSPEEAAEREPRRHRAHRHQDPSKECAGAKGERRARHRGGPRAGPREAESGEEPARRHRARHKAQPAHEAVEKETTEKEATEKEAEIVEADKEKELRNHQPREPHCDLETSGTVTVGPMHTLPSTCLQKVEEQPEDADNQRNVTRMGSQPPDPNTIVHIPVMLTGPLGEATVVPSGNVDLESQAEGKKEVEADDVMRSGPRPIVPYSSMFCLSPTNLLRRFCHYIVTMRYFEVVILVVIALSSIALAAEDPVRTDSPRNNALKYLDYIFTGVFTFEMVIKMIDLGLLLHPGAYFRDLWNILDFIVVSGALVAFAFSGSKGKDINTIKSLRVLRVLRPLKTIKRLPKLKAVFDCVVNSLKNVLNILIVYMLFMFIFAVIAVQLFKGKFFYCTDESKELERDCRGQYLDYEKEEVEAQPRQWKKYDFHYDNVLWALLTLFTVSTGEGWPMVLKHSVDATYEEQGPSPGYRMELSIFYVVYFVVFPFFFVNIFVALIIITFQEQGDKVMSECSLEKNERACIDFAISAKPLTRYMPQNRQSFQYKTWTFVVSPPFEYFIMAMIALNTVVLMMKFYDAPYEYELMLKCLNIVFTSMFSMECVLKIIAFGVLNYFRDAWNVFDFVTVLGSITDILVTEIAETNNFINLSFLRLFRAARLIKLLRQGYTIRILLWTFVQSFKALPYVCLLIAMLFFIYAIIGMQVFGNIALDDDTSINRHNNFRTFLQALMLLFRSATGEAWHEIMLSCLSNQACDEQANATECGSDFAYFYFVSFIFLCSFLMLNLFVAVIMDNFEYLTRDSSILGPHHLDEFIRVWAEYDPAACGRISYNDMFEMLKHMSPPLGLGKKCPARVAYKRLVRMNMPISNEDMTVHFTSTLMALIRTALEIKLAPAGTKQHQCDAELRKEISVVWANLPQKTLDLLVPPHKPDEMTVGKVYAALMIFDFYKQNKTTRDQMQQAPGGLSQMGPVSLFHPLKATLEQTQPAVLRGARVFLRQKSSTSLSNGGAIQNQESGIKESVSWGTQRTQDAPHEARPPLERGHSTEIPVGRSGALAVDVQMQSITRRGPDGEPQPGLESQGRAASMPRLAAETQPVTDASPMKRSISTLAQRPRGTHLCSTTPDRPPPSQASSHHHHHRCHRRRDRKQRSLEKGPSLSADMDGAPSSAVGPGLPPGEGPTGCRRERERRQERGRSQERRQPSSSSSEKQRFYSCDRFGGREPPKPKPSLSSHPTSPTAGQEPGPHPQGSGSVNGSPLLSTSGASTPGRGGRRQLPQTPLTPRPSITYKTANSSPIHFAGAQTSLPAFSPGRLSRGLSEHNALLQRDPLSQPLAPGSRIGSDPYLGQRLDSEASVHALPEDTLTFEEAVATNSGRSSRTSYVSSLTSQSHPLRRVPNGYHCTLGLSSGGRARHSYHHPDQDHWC
T5 sequence (Q02410 whole entry): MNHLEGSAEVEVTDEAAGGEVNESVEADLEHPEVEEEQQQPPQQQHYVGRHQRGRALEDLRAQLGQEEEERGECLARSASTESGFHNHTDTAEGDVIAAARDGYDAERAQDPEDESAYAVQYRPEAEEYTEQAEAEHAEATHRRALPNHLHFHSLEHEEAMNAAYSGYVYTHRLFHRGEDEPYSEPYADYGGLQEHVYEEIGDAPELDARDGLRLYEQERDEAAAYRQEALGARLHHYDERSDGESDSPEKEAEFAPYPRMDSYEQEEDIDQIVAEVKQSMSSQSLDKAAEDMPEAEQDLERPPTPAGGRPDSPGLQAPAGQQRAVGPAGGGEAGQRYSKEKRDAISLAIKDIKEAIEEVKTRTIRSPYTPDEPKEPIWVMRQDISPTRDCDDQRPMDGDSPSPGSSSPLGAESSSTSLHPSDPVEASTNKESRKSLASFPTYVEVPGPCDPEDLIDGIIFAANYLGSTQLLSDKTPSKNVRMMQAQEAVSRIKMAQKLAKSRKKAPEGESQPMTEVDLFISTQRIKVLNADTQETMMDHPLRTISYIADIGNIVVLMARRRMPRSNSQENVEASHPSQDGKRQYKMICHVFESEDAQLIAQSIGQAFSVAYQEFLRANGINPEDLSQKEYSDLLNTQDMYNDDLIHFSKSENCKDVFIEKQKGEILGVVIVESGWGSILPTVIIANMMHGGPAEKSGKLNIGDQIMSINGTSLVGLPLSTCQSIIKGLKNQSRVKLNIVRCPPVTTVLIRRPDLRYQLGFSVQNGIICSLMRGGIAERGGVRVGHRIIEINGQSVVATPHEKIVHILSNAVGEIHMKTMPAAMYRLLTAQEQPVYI

[12] = molecular target: T6, Heat shock factor protein 1 (Mus musculus, UniProt P38532); experiment: decrease of HSF1-responsive luciferase luminescence – cell-based, NIH3T3, dose retest, confirmation (AID 2382); type: functional;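 further: NIH3T3 fibroblasts with HSF1-driven luciferase reporter stressed by proteasome inhibitor MG132; luminescence from HSF1-driven luciferase expression after 8 hours of MG132 stress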
T6 sequence (P38532 whole entry): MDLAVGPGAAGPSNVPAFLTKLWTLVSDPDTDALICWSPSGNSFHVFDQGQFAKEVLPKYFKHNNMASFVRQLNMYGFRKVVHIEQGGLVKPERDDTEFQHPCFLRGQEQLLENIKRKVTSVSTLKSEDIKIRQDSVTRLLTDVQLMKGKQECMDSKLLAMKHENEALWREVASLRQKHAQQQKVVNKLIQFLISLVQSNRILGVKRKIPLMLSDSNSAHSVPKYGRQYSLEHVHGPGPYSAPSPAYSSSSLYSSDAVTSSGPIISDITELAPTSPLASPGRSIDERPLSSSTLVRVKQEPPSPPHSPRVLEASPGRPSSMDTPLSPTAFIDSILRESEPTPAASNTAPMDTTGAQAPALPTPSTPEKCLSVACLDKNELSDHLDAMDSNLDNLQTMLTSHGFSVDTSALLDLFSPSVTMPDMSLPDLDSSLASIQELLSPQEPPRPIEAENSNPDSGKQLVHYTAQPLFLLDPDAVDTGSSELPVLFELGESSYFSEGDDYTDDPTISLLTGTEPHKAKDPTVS

[13] = Luminescence Cell-Based Dose Retest to Confirm Inhibitors of Cancer Stem Cells. [Related pubchem assays (depositor defined):AID2717, AID2721]; type: functional; conditions: Homo sapiens
[14] = molecular target: T5, Voltage-gated N-type calcium channel alpha-1B subunit/Amyloid beta A4 precursor protein-binding family A member 1; type: protein assay; remark: listed apart in the source
[15] = MIN6 cell viability loss – mouse insulinoma, cytotoxicity control, dose response (AID 2122); type: functional;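 further: confirmatory high-throughput counterscreen run to flag cytotoxic compounds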
[16] = decrease of insulin promoter-GFP reporter – imaging, high-content screening, mouse beta cells (AID 1628); type: functional; conditions: MIN6
[17] = molecular target: T7, Phosphomannomutase 2 (Homo sapiens, UniProt O15305); experiment: Counter screen SAR assay for PMM2 inhibitors via a fluorescence intensity assay. [Related pubchem assays (depositor defined):AID1545, AID1574]
T7 sequence (O15305 whole entry): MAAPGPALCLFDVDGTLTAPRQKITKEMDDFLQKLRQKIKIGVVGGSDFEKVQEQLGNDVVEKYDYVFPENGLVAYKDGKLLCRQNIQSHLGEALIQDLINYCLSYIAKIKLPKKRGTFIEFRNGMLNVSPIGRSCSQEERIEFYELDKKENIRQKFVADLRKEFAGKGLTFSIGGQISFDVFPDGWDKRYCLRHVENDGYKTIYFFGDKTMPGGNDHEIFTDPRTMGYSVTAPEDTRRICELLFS

[18] = molecular target: T8, Mannose-6-phosphate isomerase (Homo sapiens, UniProt P34949); experiment: phosphomannose isomerase inhibition – biochemical, fluorescence intensity, confirmation (AID 1535)
T8 sequence (P34949 whole entry): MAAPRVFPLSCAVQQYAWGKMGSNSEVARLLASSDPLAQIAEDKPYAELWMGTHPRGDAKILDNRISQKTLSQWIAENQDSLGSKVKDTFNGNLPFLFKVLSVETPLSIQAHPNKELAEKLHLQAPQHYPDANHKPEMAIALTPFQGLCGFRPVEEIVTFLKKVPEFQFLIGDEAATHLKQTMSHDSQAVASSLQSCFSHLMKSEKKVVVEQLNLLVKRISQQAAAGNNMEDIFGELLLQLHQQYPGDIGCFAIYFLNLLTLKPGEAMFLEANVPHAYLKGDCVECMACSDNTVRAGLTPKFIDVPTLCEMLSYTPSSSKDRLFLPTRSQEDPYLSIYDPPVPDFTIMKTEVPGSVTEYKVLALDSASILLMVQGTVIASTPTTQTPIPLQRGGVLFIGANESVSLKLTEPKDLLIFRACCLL

[19] = molecular target: T9, Phosphoethanolamine/phosphocholine phosphatase (Homo sapiens, UniProt Q8TCT1); experiment: SAR assay for compounds that inhibit PHOSPHO1. [Related pubchem assays (depositor defined):AID1545, AID1565, AID1574]
T9 sequence (Q8TCT1 whole entry): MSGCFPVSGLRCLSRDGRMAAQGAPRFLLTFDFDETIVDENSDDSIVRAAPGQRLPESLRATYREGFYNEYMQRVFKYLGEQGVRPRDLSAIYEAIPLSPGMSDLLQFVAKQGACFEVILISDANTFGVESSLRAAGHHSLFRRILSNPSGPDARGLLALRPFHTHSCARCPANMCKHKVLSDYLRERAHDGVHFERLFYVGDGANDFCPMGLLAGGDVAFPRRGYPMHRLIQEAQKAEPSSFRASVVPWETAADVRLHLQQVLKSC

[20] = system: H4; experiment: Luminescence Cell-Based Dose Response HTS to Identify Activators of 5'UTR Stem-Loop Driven Prion Protein mRNA Translation in H4 Neuroglioblastoma Cells. [Related pubchem assays: 1829 (Project Summary), 1814 (Primary HTS)]; type: functional; conditions: Homo sapiens
[21] = Luminescence Cell-Based Dose Confirmation HTS to Identify Activators of 5'UTR Stem-Loop Driven Alpha-Synuclein mRNA Translation in H4 Neuroglioblastoma Cells. [Related pubchem assays: 1829 (Project Summary), 1814 (Primary HTS)]; type: functional
[22] = Luminescence Cell-Based Dose Response HTS to Identify Activators of Luciferase Translation or Activity in H4 […] Cells. [Related pubchem assays: 1829 (Project Summary), 1814 (Primary HTS)]; type: functional

Nc1cccc2cc(S(=O)(=O)O)ccc12
AC50 [1]: 108 µM (active) | IC50 [2]: > 100 µM (inactive)

O=C(c1ccccc1)c1cc([N+](=O)[O-])ccc1N1CCOCC1
IC50 [3]: > 80 µM (inactive)

CCC(=O)Oc1ccc2c(c1)O/C(=C\c1ccco1)C2=O
AC50 [1]: 14.1 µM (active) | EC50 [4]: > 99 µM (inactive) | EC50 [5]: 31.5 µM (inactive)

COC(=O)c1ccc(Sc2nnnn2-c2ccccc2)c([N+](=O)[O-])c1
IC50 [6]: 14.3 µM (active) | CC50 [7]: 20.5 µM (active) | CC50 [8]: > 20 µM (active)

CC(=O)c1cnc(-c2ccccc2)s1
IC50 [9]: > 100 µM (not active) | IC50 [10]: > 100 µM (inactive)

CNC(=O)C1C(S)=NC(N)=C(C#N)C1c1ccccc1 (configuration not stated)
IC50 [11]: 1.68 µM (active) | EC50 [12]: 19 µM (active) | AC50 [13]: > 195 µM (inactive) | IC50 [14]: > 50 µM (inactive)

CCC(=O)OC1c2ccccc2C(=O)N1Cc1ccccc1 (configuration not stated)
IC50 [9]: > 100 µM (not active) | IC50 [10]: > 100 µM (inactive)

CC1CCCC(NC(=O)c2cn(C)c3ccc(S(=O)(=O)N4CCCC4)cc3c2=O)C1C (configuration not stated)
IC50 [9]: > 100 µM (not active) | IC50 [10]: > 100 µM (inactive)

Cc1cc(C(=O)CSc2nc3cc(Cl)ccc3[nH]2)c(C)n1CC1CCCO1 (configuration not stated)
IC50 [15]: 2.99 µM (active) | IC50 [16]: 2.74 µM (active)

Cc1nc([N+](=O)[O-])c(Br)n1CC(=O)c1ccccc1
IC50 [6]: 10.8 µM (active) | CC50 [7]: 40 µM (active) | CC50 [8]: 18.6 µM (active)

O=c1c2ccccc2sn1-c1ccc(S(=O)(=O)N2CCOCC2)cc1
IC50 [17]: > 100 µM (inactive) | IC50 [18]: > 50 µM (inactive) | IC50 [19]: 0.545 µM (active)

[N-]=[N+]=Nc1cc([N+](=O)[O-])cc2sn(-c3ccccc3)c(=O)c12
IC50 [17]: 96.4 µM (active) | IC50 [18]: > 50 µM (inactive) | IC50 [19]: 0.498 µM (active)

C=CCOC(=O)/C=C/C(=O)NC(N)=O
IC50 [11]: 7.61 µM (active) | IC50 [14]: 2.95 µM (active)

NS(=O)(=O)c1ccc(N/N=C/c2cn(-c3ccccc3)nc2-c2ccccc2)c([N+](=O)[O-])c1
IC50 [15]: 3.46 µM (active) | EC50 [20]: > 120 µM (not active) | EC50 [21]: > 120 µM (not active) | EC50 [22]: > 60 µM (not active) | IC50 [16]: 1.05 µM (active)

— ChEMBL document CHEMBL1201862, “PubChem BioAssay data set” (2004)
